How the values were obtained:
male Wistar albino rats = test: Streptozotocin (STZ) model of diabetes, blood glucose AUC; type: in vivo, rat; settings: decrease in blood glucose relative to Amaryl = 100%; model not stated
Method: The complete course of the experiment was conducted using male Wistar albino rats (200-250 g), reared and maintained in the animal house of the institution and provided free access to pelleted food and water ad libitum. The rats were maintained in a controlled environment (12 h light and dark cycle) for about a week for acclimatization. The protocol of the study was approved by the animal ethics committee of the Faculty of Pharmacy, […] University (10-01-2012). The study was conducted in accordance with the EC, directive 86/609/EEC for animal experiments. […] Equivalent doses of all derivatives were calculated according to their molecular weight [M·wt]. Diabetes was induced in overnight fasted rats with a single intraperitoneal injection of streptozotocin (STZ) (Sigma-Aldrich, Co., St. Louis, USA. Catalog number: 1001062761) in a dose of 65 mg/kg. STZ was freshly dissolved in ice cold citrate buffer (0.01 M, pH 4.5) prior to injection. […] Group 2, diabetic + Glimepiride ([…]) (4 mg/kg), served as a reference antidiabetic drug. Groups (3-14) were given the various pyrrole derivatives ([…], b, f, and VIIIf, a, resp.). The treated groups administered the […] and different derivatives orally. For each group, blood glucose was estimated at zero, one, two, four, and six hours after oral administration of derivatives using glucometer (Gluco Dr Super Sensor, AllMedicus Co., Ltd., Anyang, Gyeonggi, Korea). Data were represented as mean area under curve (AUC) ± SD. Significant differences between groups was tested using GraphPad InStat (Graph software Inc., V 3.05, Ralph […], Purdue University). Appropriate graphs were plotted using Microsoft Excel 2007.

For `Nc1ncnc2c1c(-c1ccccc1)c(-c1ccccc1)n2-c1ccc(Cl)c(Cl)c1` [IIId, 7-(3,4-Dichlorophenyl)-5,6-diphenyl-7H-pyrrolo[2,3-d]pyrimidin-4-amine], the melting point was 115 to 118 °C.

With `Cc1c(-n2cc(-c3ccccc3)c3c(N)ncnc32)c(=O)n(-c2ccccc2)n1C` [IIIe, 4-(4-Amino-5-phenyl-7H-pyrrolo[2,3-d]pyrimidin-7-yl)-1,5-dimethyl-2-phenyl-1H-pyrazol-3(2H)-one] the melting point was 152 to 155 °C.

`Nc1nc(=S)[nH]c2c1c(-c1ccccc1)c(-c1ccccc1)n2-c1ccc(Cl)c(Cl)c1` [IIIi, 4-Amino-7-(3,4-dichlorophenyl)-5,6-diphenyl-1H-pyrrolo[2,3-d] pyrimidine-2(7H)-thione] gave a melting point of 90 to 95 °C.

For `Cc1c(-n2cc(-c3ccccc3)c3c(N)nc(=S)[nH]c32)c(=O)n(-c2ccccc2)n1C` [IIIj, 4-(4-Amino-5-phenyl-2-thioxo-1H-pyrrolo[2,3-d]pyrimidin-7(2H)-yl)-1,5-dimethyl-2-phenyl-1H-pyrazol-3(2H)-one], the melting point was 172 to 174 °C.

Compound `O=c1[nH]cnc2c1c(-c1ccccc1)c(-c1ccccc1)n2-c1ccc(Cl)c(Cl)c1` [IId, 7-(3,4-Dichlorophenyl)-5,6-diphenyl-3H-pyrrolo[2,3-d]pyrimidin-4(7H)-one] has a melting point of 172 to 176 °C.

For `Cc1c(-n2cc(-c3ccccc3)c3c(=O)[nH]cnc32)c(=O)n(-c2ccccc2)n1C` [IIe, 7-(1,5-Dimethyl-3-oxo-2-phenyl-2,3-dihydro-1H-pyrazol-4-yl)-5-phenyl-3H-pyrrolo[2,3-d]pyrimidin-4(7H)-one], the melting point was 205 to 208 °C.

With `Cc1nc2c(c(-c3ccccc3)c(-c3ccccc3)n2-c2ccc(Cl)c(Cl)c2)c(=O)[nH]1` [IIi, 7-(3,4-Dichlorophenyl)-2-methyl-5,6-diphenyl-3H-pyrrolo[2,3-d]pyrimidin-4(7H)-one] the melting point was 200 to 202 °C.

In the case of `Cc1nc2c(c(-c3ccccc3)cn2-c2c(C)n(C)n(-c3ccccc3)c2=O)c(=O)[nH]1` [IIj, 7-(1,5-Dimethyl-3-oxo-2-phenyl-2,3-dihydro-1H-pyrazol-4-yl)-2-methyl-5-phenyl-3H-pyrrolo[2,3-d]pyrimidin-4(7H)-one], the melting point is reported as 225 to 227 °C.

Compound `Clc1ccc(-n2c(-c3ccccc3)c(-c3ccccc3)c3c(Cl)ncnc32)cc1Cl` [IVd, 4-Chloro-7-(3,4-dichlorophenyl)-5,6-diphenyl-7H-pyrrolo[2,3-d]pyrimidine] has a melting point of 124 to 128 °C.

In the case of `Cc1c(-n2cc(-c3ccccc3)c3c(Cl)ncnc32)c(=O)n(-c2ccccc2)n1C` [IVe, 4-(4-Chloro-5-phenyl-7H-pyrrolo[2,3-d]pyrimidin-7-yl)-1,5-dimethyl-2-phenyl-1H-pyrazol-3(2H)-one], the melting point is reported as 125 to 130 °C.

With `Cc1nc(Cl)c2c(-c3ccccc3)c(-c3ccccc3)n(Cc3ccccc3)c2n1` [IVf, 7-Benzyl-4-chloro-2-methyl-5,6-diphenyl-7H-pyrrolo[2,3-d]pyrimidine] the melting point was 120 to 124 °C.

For `Cc1nc(Cl)c2c(-c3ccccc3)c(-c3ccccc3)n(-c3ccc(Cl)c(Cl)c3)c2n1` [IVh, 4-Chloro-7-(3,4-dichlorophenyl)-2-methyl-5,6-diphenyl-7H-pyrrolo[2,3-d]pyrimidine], the melting point was 108 to 110 °C.

`Cc1nc(Cl)c2c(-c3ccccc3)cn(-c3c(C)n(C)n(-c4ccccc4)c3=O)c2n1` [IVi, 4-(4-Chloro-2-methyl-5-phenyl-7H-pyrrolo[2,3-d]pyrimidin-7-yl)-1,5-dimethyl-2-phenyl-1H-pyrazol-3(2H)-one] showed a melting point of 95 to 100 °C.

For `N#Cc1c(-c2ccccc2)c(-c2ccccc2)n(-c2ccc(Cl)c(Cl)c2)c1N` [Id, 2-Amino-1-(3,4-dichlorophenyl)-4,5-diphenyl-1H-pyrrole-3-carbonitrile], the melting point was 118 to 122 °C.

Compound `CC(=O)Nc1c(C#N)c(-c2ccccc2)c(-c2ccccc2)n1-c1ccc(Cl)c(Cl)c1` [In, N-(3-Cyano-1-(3,4-dichlorophenyl)-4,5-diphenyl-1H -pyrrol-2-yl) acetamide] has a melting point of 135 to 138 °C.

Work on `CC(=O)Nc1c(C#N)c(-c2ccccc2)cn1-c1c(C)n(C)n(-c2ccccc2)c1=O` [Io, N-(3-Cyano-1-(1,5-dimethyl-3-oxo-2-phenyl-2,3-dihydro-1H -pyrazol-4-yl)-4-phenyl-1H -pyrrol-2-yl)acetamide] yielded a melting point of 135 to 138 °C.

For `N#Cc1c(-c2ccccc2)c(-c2ccccc2)n(-c2ccc(Cl)c(Cl)c2)c1NN=C1C(N)=NN=C1N` [VIIId, 2-(2-(3,5-Diamino-4H-pyrazol-4-ylidene)hydrazinyl)-1-(3,4-dichlorophenyl)-4,5-diphenyl-1H-pyrrole-3-carbonitrile], the melting point was 120 to 124 °C.

For `Cc1c(-n2cc(-c3ccccc3)c(C#N)c2NN=C2C(N)=NN=C2N)c(=O)n(-c2ccccc2)n1C` [VIIIe, 2-(2-(3,5-Diamino-4H-pyrazol-4-ylidene)hydrazinyl)-1-(1,5-dimethyl-3-oxo-2-phenyl-2,3-dihydro-1H-pyrazol-4-yl)-4-phenyl-1H-pyrrole-3-carbonitrile], the melting point was 135 to 138 °C.

In the case of `N#Cc1c(-c2ccccc2)c(-c2ccccc2)n(Cc2ccccc2)c1NN=C1C(N)=NN=C1O` [VIIIf, 2-(2-(3-Amino-5-hydroxy-4H-pyrazol-4-ylidene)hydrazinyl)-1-benzyl-4,5-diphenyl-1H-pyrrole-3-carbonitrile], the melting point is reported as 97 to 100 °C.

For `CCOC(=O)C(C#N)=NNc1c(C#N)c(-c2ccccc2)c(-c2ccccc2)n1Cc1ccccc1` [VIIf, Ethyl 2-(2-(1-Benzyl-3-cyano-4,5-diphenyl-1H-pyrrol-2-yl)hydrazono)-2-cyano-acetate], the melting point was 125 to 130 °C.

Work on `S=c1[nH]cnc2c1c(-c1ccccc1)c(-c1ccccc1)n2-c1ccc(Cl)c(Cl)c1` [VId, 7-(3,4-Dichlorophenyl)-5,6-diphenyl-3H-pyrrolo[2,3-d]pyrimidine-4(7H)-thione] yielded a melting point of 142 to 166 °C.

Compound `Cc1c(-n2cc(-c3ccccc3)c3c(=S)[nH]cnc32)c(=O)n(-c2ccccc2)n1C` [VIe, 1,5-Dimethyl-2-phenyl-4-(5-phenyl-4-thioxo-3H-pyrrolo[2,3-d]pyrimidin-7(4H)-yl)-1H-pyrazol-3(2H)-one] has a melting point of 142 to 166 °C.

In the case of `Cc1nc2c(c(-c3ccccc3)c(-c3ccccc3)n2Cc2ccccc2)c(=S)[nH]1` [VIf, 7-Benzyl-2-methyl-5,6-diphenyl-3H-pyrrolo[2,3-d]pyrimidine-4(7H)-thione], the melting point is reported as 165 to 167 °C.

In the case of `NNc1ncnc2c1c(-c1ccccc1)c(-c1ccccc1)n2-c1ccc(Cl)c(Cl)c1` [Vd, 7-(3,4-Dichlorophenyl)-4-hydrazinyl-5,6-diphenyl-7H-pyrrolo[2,3-d]pyrimidine], the melting point is reported as 122 to 126 °C.

In the case of `Cc1c(-n2cc(-c3ccccc3)c3c(NN)ncnc32)c(=O)n(-c2ccccc2)n1C` [Ve, 4-(4-Hydrazinyl-5-phenyl-7H-pyrrolo[2,3-d]pyrimidin-7-yl)-1,5-dimethyl-2-phenyl-1H-pyrazol-3(2H)-one], the melting point is reported as 142 to 146 °C.

Compound `Cc1nc(NN)c2c(-c3ccccc3)c(-c3ccccc3)n(Cc3ccccc3)c2n1` [Vf, 7-Benzyl-4-hydrazinyl-2-methyl-5,6-diphenyl-7H-pyrrolo[2,3-d] pyrimidine] has a melting point of 147 to 152 °C.

With `Cc1nc(NN)c2c(-c3ccccc3)c(-c3ccccc3)n(-c3c(C)n(C)n(-c4ccccc4)c3=O)c2n1` [Vg, 4-(4-Hydrazinyl-2-methyl-5,6-diphenyl-7H-pyrrolo[2,3-d]pyrimidin-7-yl)-1,5-dimethyl-2-phenyl-1H-pyrazol-3(2H)-one] the “Potency of antihyperglycemic derivatives compared to Amaryl” value (male Wistar albino rats) was 36.19% and the melting point was 185 to 188 °C.

`Cc1nc(NN)c2c(-c3ccccc3)c(-c3ccccc3)n(-c3ccc(Cl)c(Cl)c3)c2n1` [Vh, 7-(3,4-Dichlorophenyl)-4-hydrazinyl-2-methyl-5,6-diphenyl-7H-pyrrolo[2,3-d]pyrimidine] showed a melting point of 142 to 146 °C.

In the case of `Cc1nc(NN)c2c(-c3ccccc3)cn(-c3c(C)n(C)n(-c4ccccc4)c3=O)c2n1` [Vi, 4-(4-Hydrazinyl-2-methyl-5-phenyl-7H-pyrrolo[2,3-d]pyrimidin-7-yl)-1,5-dimethyl-2-phenyl-1H-pyrazol-3(2H)-one], the melting point is reported as 148 to 150 °C.

— PMC4099110, “Synthesis and Evaluation of Novel Pyrroles and Pyrrolopyrimidines as Anti-Hyperglycemic Agents” (BioMed Research International, 2014)
